Source: patent US3935313A, “Pharmaceutical composition containing N-(3-diethyl-aminopropyl)-4-nitro-1-oxide-pyridine-2-carboxamide and process for the treatment of hypertension therewith” (Aron-Samuel; Jan Marcel Didier, priority 1971, dated 1976)

Legend:
[1] = Acute toxicity (method of Lichtfield and Wilcoxon); settings: in vivo
From the text: The compound used for such tests is the hydrochloride (LA 2511).

[2] = Chronic toxicity, 6 months, Rhesus monkeys; format: in vivo; settings: up to maximum dose tested 400 mg/kg
[3] = Chronic toxicity, 6 months, rats; format: in vivo; settings: up to maximum dose tested 400 mg/kg
Teratogenicity in rats = format: in vivo; settings: 600 mg/kg
[4] = Teratogenicity in rabbits; format: in vivo; settings: 200 mg/kg
[5] = test system: dogs made hypertensive by the bilateral destruction of the sensory endings of the sino-carotid area; test: Anti-hypertensive effect in dogs with destroyed sino-carotid sensory endings; format: in vivo
From the text: (§1) The anti-hypertensive effect was investigated:
1. in dogs made hypertensive by the bilateral destruction of the sensory endings of the sino-carotid area;

[6] = test system: rats made hypertensive by implantation of two 25 mg deoxycorticosterone pellets combined with a sodium enriched diet; test: Anti-hypertensive effect in deoxycorticosterone/sodium hypertensive rats; format: in vivo
Protocol: as §1
2. in rats made hypertensive by implantation of two 25 mg deoxycorticosterone pellets combined with a sodium enriched diet;

[7] = test system: rats made hypertensive according to Goldblatt's method; test: Anti-hypertensive effect in Goldblatt hypertensive rats; format: in vivo
From the text: as §1
3. in rats made hypertensive according to Goldblatt's method (unilateral renal arterial constriction with contralateral nephrectomy).

normotensive subjects = test: Effects in normotensive subjects; format: in vivo, Man
Protocol: Prior to the therapeutic tests, toxicological and clinical pharmacological investigations were conducted in normotensive Man. […] The systolic pressure is depressed by 2 to 4 cm of mercury, while the diastolic pressure is depressed by 2 cm, on the average.
Dosage of compound administered: 1 tablet containing 400 mg active ingredient during 1 week, 2 tablets during 1 week, 3 tablets during 3 weeks.
Dosage of compound administered: 1 tablets containing 400 mg active ingredient during 3 weeks, 2 tablets during the 5 following weeks.

[8] = test system: patients with true hypertension; test: Clinical experimentation involving 22 hospital patients; format: in vivo, Man; settings: of 22 patients; criteria: systolic L1, diastolic L2
Protocol: Clinical experimentation involving 22 hospital patients.
Procedure: The patients selected suffer from true hypertension involving both systolic pressure and diastolic pressure. Before starting treatment with the compound, it was ascertained, during a period of time of 8 days, in the absence of any hypotensive treatment, that this hypertension was stable in the morning, at noon and in the evening, in standing, sitting and recumbent positions.
1. Effect on blood pressure: the result was evaluated on the basis of the blood pressure depression, expressed as cm of mercury, according to the following criteria: Result Nil Fair Good Very good __________________________________________________________________________ Systolic pressure depression 0 < 3 cm 3-4 cm > 4 cm Diastolic pressure depression 0 <1.5 cm 1.5-2 cm >2 cm __________________________________________________________________________
2. Effect on functional signs: headaches, dizziness, floating specks, ear buzzing.

hypertensive subjects [9] = test: Treatment of hypertensive subjects with the compound in combination with other anti-hypertensive materials; format: in vivo, Man
Protocol: Combinations of the compound of this invention with other anti-hypertensiveagents were also investigated.
The most important combination is that with diuretic drugs, as predicted from the efficiency data provided by the pharmacological investigation. A reduction of the dosage of compound of about 50% and/or a three-fold duration of the action are obtained.
Dosage of compound administered: 5 tablets containing 400 mg active compound daily during 30 days. Associated treatment: salt-free diet, potassium chloride, furosemide: one 40 mg tablet, 3 times a week.
Dosage of compound administered: 5 tablets containing 400 mg active material, daily during 30 days. Associated treatment: potassium chloride, altizide: 15 mg; spironolactone: 25 mg.
Treatment during one month with the compound of this invention: 4 tablets daily, containing each 400 mg active ingredient, taken two at a time, plus 4 tablets daily of α-methyl dopa, containing each 250 mg active ingredient, taken two at a time.

hypertensive subjects [10] = test: Therapeutic effects in hypertensive subjects, compound alone
Procedure: About a hundred patients were treated with the compound during several months.
The compound was tested alone at dosages from 300 mg to 5 g daily. […] The results just set forth relate to determinations made with the patients in a recumbent position.

hypertensive subjects [11] = test: Treatment of a hypertensive patient with α-methyldopa alone; format: in vivo, Man; settings: TRU... Yves
Protocol: Strong functional signs (headaches, dizziness). Treated during one month with α-methyldopa: 2, then 4, then 6 tablets per day, containing each 250 mg active ingredient.

[12] = oral, 200 mg to 5 g daily, normotensive
[13] = GAU... Albert, 5 x 400 mg daily 30 days + altizide 15 mg, spironolactone 25 mg, potassium chloride, prior 21/13
[14] = GAU... Albert, + altizide, spironolactone
[15] = SUF... Auguste, 5 x 400 mg daily 30 days + furosemide 40 mg 3 times a week, potassium chloride, salt-free diet, prior 24/12
[16] = TRU... Yves, 4 x 400 mg daily + α-methyldopa 4 x 250 mg daily, one month, after α-methyldopa alone 21/111/2
[17] = combination with diuretic drugs
[18] = fraction of subjects, alone, 300 mg to 5 g daily, recumbent
[19] = more than half the subjects, alone, 300 mg to 5 g daily, recumbent
[20] = one-fourth of the patients, alone, 300 mg to 5 g daily, recumbent
[21] = use as anti-hypertensive material in Man

CCN(CC)CCCNC(=O)c1cc([N+](=O)[O-])cc[n+]1[O-] [LA 2511, N-(3-diethylaminopropyl)-4-nitro-1-oxide-pyridine-2-carboxamide]
LD50 [1]: 2000 mg/kg
toxic effect on chronic treatment [2]: no toxic effect
toxic effect on chronic treatment [3]: no toxic effect
teratogenic effect (Teratogenicity in rats): No teratogenic effect
teratogenic effect [4]: No teratogenic effect
anti-hypertensive efficiency in combination with diuretics ([5]; in combination with diuretics, stated for the experimental hypertension models together): efficiency is extended
anti-hypertensive efficiency ([5]; sino-carotid denervated hypertensive dogs): substantial consistent efficiency
anti-hypertensive efficiency [6]: substantial consistent efficiency
anti-hypertensive efficiency [7]: substantial consistent efficiency
blood pressure after treatment, recumbent, evening (normotensive subjects; CHA... Paul, 400 mg tablets, 1 for 3 weeks, 2 for 5 weeks, initial 13/8): 11/6
blood pressure after treatment, recumbent, morning (normotensive subjects; CHA... Paul, 400 mg tablets, 1 for 3 weeks, 2 for 5 weeks, initial 14/8): 12/6
tolerance (normotensive subjects; CHA... Paul, 8 weeks): Excellent tolerance
tolerance (normotensive subjects; VUI... Robert, 5 weeks): Excellent tolerance
depression of the blood pressure (normotensive subjects; [12]): moderate gradual depression
influence on the heart (normotensive subjects; [12]): No deleterious influence
systolic pressure depression (normotensive subjects; [12]): 2 to 4 cm of mercury
diastolic pressure depression (normotensive subjects; oral, 200 mg to 5 g daily, normotensive, on the average): 2 cm
depression of blood pressure under orthostatic conditions (normotensive subjects; oral, 200 mg to 5 g daily, normotensive, orthostatic): more substantial depression
modifications in the electrocardiogram and numerous biological tests (normotensive subjects; oral, 200 mg to 5 g daily, blood count, sedimentation rate, phosphatases, transaminases, azotemia, glycemia, creatinine clearance, ions, lipids etc.): No modifications were ever noted
number of "fair" results [8]: 5 results
number of "good" and "very good" results [8]: 13 results
number of "nil" results [8]: 4 results
blood pressure after treatment, standing (hypertensive subjects [9]; GAU... Albert, 5 x 400 mg daily 30 days + altizide 15 mg, spironolactone 25 mg, potassium chloride, prior 20/121/2): 14/9
blood pressure after treatment, recumbent (hypertensive subjects [9]; [13]): 16/10
blood pressure after treatment, sitting (hypertensive subjects [9]; [13]): 16/10
digestive tolerance (hypertensive subjects [9]; [14]): Fair digestive tolerance
systemic tolerance (hypertensive subjects [9]; [14]): Very good systemic tolerance
functional signs (hypertensive subjects [9]; GAU... Albert, + altizide, spironolactone, floating specks, headaches, dizziness, ear-buzzing): Improvement of the functional signs
blood pressure after treatment, sitting (hypertensive subjects [9]; [15]): 18/10
blood pressure after treatment, standing (hypertensive subjects [9]; [15]): 17/9
blood pressure after treatment, recumbent (hypertensive subjects [9]; SUF... Auguste, 5 x 400 mg daily 30 days + furosemide 40 mg 3 times a week, potassium chloride, salt-free diet, prior 24/13): 18/10
digestive and systemic tolerance (hypertensive subjects [9]; SUF... Auguste, + furosemide): Very good digestive and systemic tolerance
functional signs (hypertensive subjects [9]; SUF... Auguste, + furosemide, floating specks, headaches, ear-buzzing): Marked decrease of the functional signs
blood pressure after treatment, standing (hypertensive subjects [9]; TRU... Yves, 4 x 400 mg daily + α-methyldopa 4 x 250 mg daily, one month, after α-methyldopa alone 20/11): 18/9
blood pressure after treatment, recumbent (hypertensive subjects [9]; [16]): 19/101/2
blood pressure after treatment, sitting (hypertensive subjects [9]; [16]): 19/10
functional signs (hypertensive subjects [9]; TRU... Yves, + α-methyldopa, particularly the headaches): Marked decrease of the functional signs
duration of the action (hypertensive subjects [9]; [17]): three-fold
reduction of the dosage of compound (hypertensive subjects [9]; [17]): about 50%
efficiency of combination with diuretics (hypertensive subjects [9]; combination with diuretics): particularly efficient combination
safety of combination (hypertensive subjects [9]; combined with other anti-hypertensive materials currently used): safely be combined
systemic tolerance (hypertensive subjects [10]; BLA... Isaac): Very good systemic tolerance
taste on intake of the tablet (hypertensive subjects [10]; BLA... Isaac): Bitter taste
blood pressure after treatment, recumbent (hypertensive subjects [10]; BLA... Isaac, 6 then 4 tablets of 400 mg daily, 15 days each, prior 20/13): 19/1
blood pressure after treatment, sitting (hypertensive subjects [10]; BLA... Isaac, 6 then 4 tablets of 400 mg daily, 15 days each, prior 20/121/2): 19/10
blood pressure after treatment, standing (hypertensive subjects [10]; BLA... Isaac, 6 then 4 tablets of 400 mg daily, 15 days each, prior 191/2/10): 141/2/10
tolerance (hypertensive subjects [10]; PER... Robert): Excellent tolerance
blood pressure after treatment, sitting (hypertensive subjects [10]; PER... Robert, 2, 4, then 6 tablets of 400 mg per day, 28 days, prior 21/12): 161/2/10
blood pressure after treatment, standing (hypertensive subjects [10]; PER... Robert, 2, 4, then 6 tablets of 400 mg per day, 28 days, prior 201/2/12): 17/10
blood pressure after treatment, recumbent (hypertensive subjects [10]; PER... Robert, 2, 4, then 6 tablets of 400 mg per day, 28 days, prior 211/2/12): 15/10
functional signs (hypertensive subjects [10]; PER... Robert, headaches, ear-buzzing): Disappearance of the functional signs
return of blood pressure to former levels after interruption (hypertensive subjects [10]; after interruption of administration): 3 to 4 days
onset of the depression (hypertensive subjects [10]; alone, 300 mg to 5 g daily): within a few hours or a few days
troublesome orthostatic hypotension induced fits of faintness (hypertensive subjects [10]; alone, 300 mg to 5 g daily): None of the subjects
blood pressure in standing position (hypertensive subjects [10]; alone, 300 mg to 5 g daily, standing): more highly depressed, becoming close to normal or even attaining the normal value
side-effect (hypertensive subjects [10]; disappear when ingested in the middle of a meal and/or dosage decreased): a few cases of gastric pains and nausea
patients with moderate depression (hypertensive subjects [10]; fraction of patients, alone, 300 mg to 5 g daily, recumbent): One-fourth
hypertensive subjects with substantial depression of the blood pressure (hypertensive subjects [10]; [18]): more than half
subjects non-influenced (hypertensive subjects [10]; [18]): Less than one-fourth
diastolic pressure depression in subjects with substantial depression (hypertensive subjects [10]; [19]): > 2 cm of mercury
systolic pressure depression in subjects with substantial depression (hypertensive subjects [10]; [19]): > 4 cm of mercury
diastolic pressure depression in patients with moderate depression (hypertensive subjects [10]; [20]): about 1 cm
systolic pressure depression in patients with moderate depression (hypertensive subjects [10]; [20]): about 2 cm
action (hypertensive subjects [10]; oral, 200 mg to 5 g daily): rapid but gradual action
toxicity and tolerance (hypertensive subjects [10]; oral, 200 mg to 5 g daily): free from toxicity, well tolerated
effects on blood pressure versus diuretic drugs, α-methyldopa and other hypotensive agents (hypertensive subjects [10]; particularly with respect to the diastolic pressure): much more rapid and much more positive
effect on the diastolic pressure in Man (hypertensive subjects [10]; [21]): well established
efficiency in Man (hypertensive subjects [10]; [21]): excellent efficiency
toxicity in Man (hypertensive subjects [10]; [21]): free from toxicity

C[C@](N)(Cc1ccc(O)c(O)c1)C(=O)O [α-methyldopa]
blood pressure after treatment with α-methyldopa, standing (hypertensive subjects [11]; 2, 4, then 6 tablets of 250 mg per day, one month, prior 22/12): 20/11
blood pressure after treatment with α-methyldopa, recumbent (hypertensive subjects [11]; 2, 4, then 6 tablets of 250 mg per day, one month, prior 23/12): 21/111/2
blood pressure after treatment with α-methyldopa, sitting (hypertensive subjects [11]; 2, 4, then 6 tablets of 250 mg per day, one month, prior 23/111/2): 21/111/2
functional signs (hypertensive subjects [11]; α-methyldopa alone, headaches, dizziness): Slight decrease of the functional signs
